This is an account of results in patent US12116388B2, “Amylin receptor agonists” (Novo Nordisk A/S, priority 2022, dated 2024).

The target of experiment [1] is T1, human amylin receptor (hAMYR3) (Homo sapiens, UniProt O60896+P30988).
T1 construct: host or cells: BHK (Baby Hamster Kidney), Hollex-1 cell line further transfected with RAMP3
The experiment can be described thus: Human amylin receptor (hAMYR3) in vitro potency assay, CRE-luciferase reporter in BHK cells. Format: cell-based. The settings on record: BHK hAMYR3/CRE-Luc cells, 3 hours incubation, assay buffer with 1% ovalbumin. In outline: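 Luminescence from a CRE-driven luciferase reporter reflects cAMP-mediated receptor activation. Peptides were serially diluted (7 concentrations, 7-fold steps, typically starting near 10 nM) in buffer with 1% ovalbumin and applied for 3 h at 37 °C to BHK cells co-expressing calcitonin receptor (a) and RAMP3.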
(In general: Reporter assays use an easily measured gene product as a stand-in for the process of interest.)

Experiment [2] concerns the target T2, human calcitonin receptor (hCTR) (Homo sapiens, UniProt P30988).
T2 construct: host or cells: BHK (Baby Hamster Kidney), Hollex-1 cell line
T2 sequence (P30988 25-474): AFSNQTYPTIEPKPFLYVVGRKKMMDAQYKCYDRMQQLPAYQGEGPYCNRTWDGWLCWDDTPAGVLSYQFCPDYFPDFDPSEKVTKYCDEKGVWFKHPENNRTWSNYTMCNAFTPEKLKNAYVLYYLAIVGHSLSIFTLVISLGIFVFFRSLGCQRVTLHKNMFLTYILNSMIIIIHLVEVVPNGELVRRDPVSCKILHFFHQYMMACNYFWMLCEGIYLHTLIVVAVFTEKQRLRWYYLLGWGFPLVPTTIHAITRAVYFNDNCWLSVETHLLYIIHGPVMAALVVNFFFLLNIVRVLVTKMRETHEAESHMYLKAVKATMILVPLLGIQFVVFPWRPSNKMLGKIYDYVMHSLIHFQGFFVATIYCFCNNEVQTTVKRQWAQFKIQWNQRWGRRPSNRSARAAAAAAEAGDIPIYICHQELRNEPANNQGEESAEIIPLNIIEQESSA
Put plainly: Human calcitonin receptor (hCTR) in vitro potency assay, CRE-luciferase reporter in BHK cells. Conditions: BHK hCTR/CRE-Luc cells, 3 hours incubation, assay buffer with 1% ovalbumin; read-out: hCalcR potency, EC50. The experiment is classed as cell-based. In outline:
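Luciferase signal from a CRE reporter served as the cAMP read-out after 3 h, 37 °C exposure to compound. Cells were stably transfected BHK expressing hCTR, and the buffer was phenol-red-free DMEM with 10 mM HEPES and 1% ovalbumin. Compounds were tested as 7-point, 7-fold dilutions, often from about 10 nM.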

The structures appear in SMILES notation. Starred links: 1 amine or outer side, 2 acyl side, 3 side chain; linkers in the order of their positions; H or OH if unused. Residues, ends and D or L forms follow the SMILES beside them. *: point of attachment. C18 diacid = O=C(O)CCCCCCCCCCCCCCCCC(=O)*; γGlu = O=C(O)[C@H](CCC(=O)[*:2])N[*:1]

T1 sequence (O60896 24-148, one chain of several): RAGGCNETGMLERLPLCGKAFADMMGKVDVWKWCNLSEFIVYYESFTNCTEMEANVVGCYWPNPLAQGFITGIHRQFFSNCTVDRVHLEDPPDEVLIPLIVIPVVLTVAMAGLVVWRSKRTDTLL

With `CC[C@H](C)[C@H](NC(=O)[C@@H]1CCCN1C(=O)CNC(=O)[C@H](Cc1ccccc1)NC(=O)[C@H](Cc1c[nH]cn1)NC(=O)[C@H](Cc1c[nH]cn1)NC(=O)[C@H](CC(C)C)NC(=O)[C@H](Cc1ccccc1)NC(=O)[C@H](CCC(=O)O)NC(=O)[C@H](C)NC(=O)[C@H](CC(C)C)NC(=O)[C@H](CCCNC(=N)N)NC(=O)[C@H](C)NC(=O)[C@@H](NC(=O)[C@H](CCC(N)=O)NC(=O)[C@H](C)NC(=O)[C@@H](NC(=O)[C@H](CO)NC(=O)[C@H](CC(C)C)NC(=O)[C@H](Cc1c[nH]cn1)NC(=O)[C@H](CO)NC(=O)[C@H](C)NC(=O)CC[C@H](NC(=O)CCCCCCCCCCCCCCCCC(=O)O)C(=O)O)[C@@H](C)O)[C@@H](C)O)C(=O)N[C@@H](CC(C)C)C(=O)N1CCC[C@H]1C(=O)N1CCC[C@H]1C(=O)N[C@H](C(=O)N[C@@H](CC(=O)O)C(=O)N[C@H](C(=O)NCC(=O)N[C@@H](CO)C(=O)N[C@@H](CCC(=O)O)C(=O)N[C@H](C(=O)N[C@@H](Cc1ccc(O)cc1)C(N)=O)[C@@H](C)O)C(C)C)[C@@H](C)O` [Compound 42, N^1-[(4S)-4-carboxy-4-(17-carboxyheptadecanoylamino)butanoyl]-[Ala1,Ser2,His3,Leu4,Ser5,Ala7,Gln8,Ala10,Glu14,His17,Pro25,Pro28,Pro29,Asp31,Glu35],des-(19-22)-human amylin] ({C18 diacid-γGlu}-ASHLSTAQTARLAEFLHHFGPILPPTDVGSETY-NH2), the EC50 is 2.11 pM in experiment [1] and 2.78 pM in experiment [2].

Consider `CC[C@H](C)[C@H](NC(=O)[C@@H]1CCCN1C(=O)CNC(=O)[C@H](Cc1ccccc1)NC(=O)[C@H](Cc1c[nH]cn1)NC(=O)[C@H](Cc1c[nH]cn1)NC(=O)[C@H](CC(C)C)NC(=O)[C@H](Cc1ccccc1)NC(=O)[C@H](CCC(=O)O)NC(=O)[C@H](C)NC(=O)[C@H](CC(C)C)NC(=O)[C@H](CCCNC(=N)N)NC(=O)[C@H](C)NC(=O)[C@@H](NC(=O)[C@H](CCC(N)=O)NC(=O)[C@H](C)NC(=O)[C@@H](NC(=O)[C@H](CO)NC(=O)[C@H](CC(C)C)NC(=O)[C@H](Cc1c[nH]cn1)NC(=O)[C@H](CO)NC(=O)[C@H](C)NC(=O)CC[C@H](NC(=O)CCCCCCCCCCCCCCCCC(=O)O)C(=O)O)[C@@H](C)O)[C@@H](C)O)C(=O)N[C@@H](CC(C)C)C(=O)N1CCC[C@H]1C(=O)N1CCC[C@H]1C(=O)N[C@H](C(=O)N[C@@H](CC(=O)O)C(=O)N[C@H](C(=O)NCC(=O)N[C@@H](CO)C(=O)N[C@@H](CCC(=O)O)C(=O)N[C@H](C(=O)N1CCC[C@H]1C(N)=O)[C@@H](C)O)C(C)C)[C@@H](C)O` [Compound 43, N^1-[(4S)-4-carboxy-4-(17-carboxyheptadecanoylamino)butanoyl]-[Ala1,Ser2,His3,Leu4,Ser5,Ala7,Gln8,Ala10,Glu14,His17,Pro25,Pro28,Pro29,Asp31,Glu35,Pro37],des-(19-22)-human amylin] ({C18 diacid-γGlu}-ASHLSTAQTARLAEFLHHFGPILPPTDVGSETP-NH2), for which the EC50 is 1.06 pM in experiment [1] and 1.76 pM in experiment [2].

In general, EC50 refers to the concentration that produces a half-maximal response.
